Assay: Henry solubility constant Hcp at 298.15 K (mol/(m3 Pa))
Conditions: reference: Bamford et al. (2000)

Row | Structure (SMILES) | Henry solubility constant Hcp
1 | Clc1cc(Cl)c(-c2c(Cl)c(Cl)cc(Cl)c2Cl)cc1Cl [2,2',3,4',5,5',6-heptachlorobiphenyl] | 0.016
2 | Clc1ccc(-c2cc(Cl)c(Cl)c(Cl)c2)cc1Cl [3,3',4,4',5-pentachlorobiphenyl] | 0.048
3 | Clc1ccc(-c2ccc(Cl)c(Cl)c2)cc1Cl [3,3',4,4'-tetrachlorobiphenyl] | 0.062
4 | Clc1cc(Cl)c(-c2ccccc2Cl)c(Cl)c1 [2,2',4,6-tetrachlorobiphenyl] | 0.016
5 | Clc1ccccc1-c1ccccc1 [2-chlorobiphenyl] | 0.049
6 | Clc1ccc(-c2ccccc2Cl)cc1 [2,4'-dichlorobiphenyl] | 0.04
7 | Clc1ccc(Cl)c(-c2ccccc2Cl)c1 [2,2',5-trichlorobiphenyl] | 0.039
8 | Clc1ccc(Cl)c(-c2cc(Cl)ccc2Cl)c1 [2,2',5,5'-tetrachlorobiphenyl] | 0.032
9 | Clc1cc(Cl)c(-c2cc(Cl)c(Cl)cc2Cl)cc1Cl [2,2',4,4',5,5'-hexachlorobiphenyl] | 0.019
10 | Clc1cc(Cl)c(-c2c(Cl)c(Cl)cc(Cl)c2Cl)c(Cl)c1Cl [2,2',3,3',4,5',6,6'-octachlorobiphenyl] | 0.01
11 | Clc1cc(Cl)c(-c2cc(Cl)c(Cl)cc2Cl)c(Cl)c1 [2,2',4,4',5,6'-hexachlorobiphenyl] | 0.013
12 | Clc1ccc(-c2cc(Cl)c(Cl)cc2Cl)cc1Cl [2,3',4,4',5-pentachlorobiphenyl] | 0.028
13 | Clc1cc(Cl)c(-c2ccc(Cl)c(Cl)c2Cl)cc1Cl [2,2',3,4,4',5'-hexachlorobiphenyl] | 0.022
14 | Clc1ccc(-c2ccc(Cl)c(Cl)c2Cl)cc1Cl [2,3,3',4,4'-pentachlorobiphenyl] | 0.03
15 | Clc1ccc(Cl)c(-c2cccc(Cl)c2Cl)c1 [2,2',3,5'-tetrachlorobiphenyl] | 0.036
16 | Clc1ccc(Cl)c(-c2cc(Cl)c(Cl)cc2Cl)c1 [2,2',4,5,5'-pentachlorobiphenyl] | 0.024
17 | Clc1cc(Cl)c(-c2c(Cl)c(Cl)cc(Cl)c2Cl)c(Cl)c1 [2,2',3,4',5,6,6'-heptachlorobiphenyl] | 0.0088
18 | Clc1ccc(-c2ccc(Cl)c(Cl)c2)c(Cl)c1 [2,3',4,4'-tetrachlorobiphenyl] | 0.027
